Experimental data published in US11541120B2, “Phosphonium-based ionic drug conjugates” (Anthos Partners, LP, priority 2017, dated 2023).
Values after ≈ are worked out from the molar mass of the structure shown. Like-named read-outs stand apart in the source and are kept apart here. Blank lines part the entries; values can stand above or below the compound they belong to.

Experiments:
[1] = Water solubility of PBICs; type: physicochemical; details: for solubility: water; for Water solubility, TPMP Conjugate: TPMP conjugate of the drug
Procedure: (§1) The water solubilties and partition coefficients of the PBICs were measured and compared to the values of the therapeutic agent by itself. To determine the partition coefficient Log D7.4 data provided in Table 2, a solution of the compound or conjugate was prepared in aqueous phosphate buffered saline (PBS) at a concentration of 100 micromolar (μM). The PBS solution was shaken with octanol. Thus, in Table 2, Log D7.4=Log (concentration in octanol/concentration in aqueous phosphate buffered saline (PBS))=Log[(initial concentration in PBS−final concentration in PBS)/final concentration in PBS], as the concentration in octanol is derived from the loss of compound from the aqueous PBS layer.

Caco-2 cell permeability = details: human, Caco-2
Caco-2 = Caco-2 cell permeability; details: No Inhibitor
[2] = Partition coefficient octanol/PBS (LogD7.4); type: physicochemical; details: 100 μM in PBS shaken with octanol
Procedure: as §1

[3] = parent drug; cited from earlier work

solubility ([1]; parent drug by itself): 444000 µg/mL (≈ 4260 mM)
Compound: CC(O)CC(=O)O (racemic) [3-hydroxybutyric acid]

solubility ([1]; parent drug by itself): 700 µg/mL (≈ 3.28 mM)
Compound: NCC(CC(=O)O)c1ccc(Cl)cc1 (centres unmarked) [Baclofen]

solubility ([1]; parent drug by itself): 160000 µg/mL (≈ 736 mM)
Compound: C[C@H](CS)C(=O)N1CCC[C@H]1C(=O)O [Captopril]

Water solubility, Drug ([1]; parent drug by itself): 43.6 mg/L
Compound: C[C@H](CCC(=O)O)[C@H]1CC[C@H]2[C@@H]3CC[C@@H]4C[C@H](O)CC[C@]4(C)[C@H]3C[C@H](O)[C@]12C [Deoxycholic acid]

Papp A→B (Caco-2 cell permeability): 34.5 ×10⁻⁶ cm/s
Papp B→A (Caco-2 cell permeability): 13.5 ×10⁻⁶ cm/s
Compound: O=C(O)Cc1ccccc1Nc1c(Cl)cccc1Cl [Diclofenac, reference compound]

solubility ([1]; parent drug by itself): 14.5 µg/mL (≈ 0.058 mM)
Compound: O=C(O)c1cc(-c2ccc(F)cc2F)ccc1O [Diflunisal]

Compound: CC(C)Cc1ccc(C(C)C(=O)O)cc1 (centres unmarked) [Ibuprofen, reference compound]
Water solubility, Drug [1]: 21.0 mg/L
Papp A→B (Caco-2 cell permeability): 40.5 ×10⁻⁶ cm/s
Papp B→A (Caco-2 cell permeability): 19 ×10⁻⁶ cm/s

Compound: CC(C)Cc1ccc(C(C)C(=O)[O-])cc1.COC1=C(OC)C(=O)C(CCCCCCCCCC[P+](c2ccccc2)(c2ccccc2)c2ccccc2)=C(C)C1=O [Ibuprofen-MitoQ, Ibuprofen MitoQ conjugate]
Water solubility, MitoQ Conjugate ([1]; MitoQ conjugate of the drug): Insoluble
Mean (B-A/A-B) Efflux Ratio (Caco-2): 0.467
Mean Papp A-B (Caco-2): 52.1 10^−6 cm/s
Mean Papp B-A (Caco-2): 24.3 10^−6 cm/s
(Conc. in octanol)/(Conc. in PBS) [2]: 9.94
LogD7.4 [2]: 1.00

solubility ([1]; parent drug by itself): 0.9 µg/mL (≈ 0.00252 mM)
Compound: COc1ccc2c(c1)c(CC(=O)O)c(C)n2C(=O)c1ccc(Cl)cc1 [Indomethacin]

solubility ([1]; parent drug by itself): 8 µg/mL (≈ 0.0185 mM)
Compound: CC(C)OC(=O)CCC/C=C\C[C@@H]1[C@@H](CC[C@@H](O)CCc2ccccc2)[C@H](O)C[C@@H]1O [Latanoprost]

solubility ([1]; parent drug by itself): 0.2 µg/mL (≈ 0.000257 mM)
Compound: N[C@@H](Cc1cc(I)c(Oc2cc(I)c(O)c(I)c2)c(I)c1)C(=O)O [Levothyroxine]

Papp A→B (Caco-2 cell permeability): 32.6 ×10⁻⁶ cm/s
Papp B→A (Caco-2 cell permeability): 3.23 ×10⁻⁶ cm/s
efflux ratio (Caco-2 cell permeability): 0.0989
Compound: CC[C@H]1[C@@H](O)[C@@H]2[C@H](CC[C@]3(C)[C@@H]([C@H](C)CCC(=O)O)CC[C@@H]23)[C@@]2(C)CC[C@@H](O)C[C@@H]12 [Obeticholic acid, reference compound]
LogP (Reported) [3]: 3.5

Compound: CCC1C(O)C2C3CCC(C(C)CCC(=O)[O-])C3(C)CCC2C2(C)CCC(O)CC12.COC1=C(OC)C(=O)C(CCCCCCCCCC[P+](c2ccccc2)(c2ccccc2)c2ccccc2)=C(C)C1=O [Obeticholic acid-MitoQ]
Mean (B-A/A-B) Efflux Ratio (Caco-2): 0.0872
Mean Papp A-B (Caco-2): 18.9 10^−6 cm/s
Mean Papp B-A (Caco-2): 1.65 10^−6 cm/s
(Conc. in octanol)/(Conc. in PBS) [2]: 624.00
LogD7.4 [2]: 2.80

solubility ([1]; parent drug by itself): 444000 µg/mL (≈ 4260 mM)
Compound: C[C@@H](O)CC(=O)O [R-3-Hydroxybutyric acid, (R)-3-hydroxybutyric acid]

Water solubility, Drug ([1]; parent drug by itself): 1,000.0 mg/L
Compound: CC1=C(/C=C/C(C)=C/C=C/C(C)=C/C(=O)O)C(C)(C)CCC1 [Retinoic acid]

solubility ([1]; parent drug by itself): 1 µg/mL (≈ 0.00251 mM)
Compound: O=C(O)c1cc(/N=N/c2ccc(S(=O)(=O)Nc3ccccn3)cc2)ccc1O [Sulfasalazine]

solubility ([1]; parent drug by itself): 7 µg/mL (≈ 0.014 mM)
Compound: CC(C)OC(=O)CCC/C=C\C[C@@H]1[C@@H](/C=C/[C@@H](O)COc2cccc(C(F)(F)F)c2)[C@H](O)C[C@@H]1O [Travoprost]

solubility ([1]; parent drug by itself): 7 µg/mL (≈ 0.0179 mM)
Compound: CCCCC[C@H](O)CC[C@@H]1[C@H]2Cc3cccc(OCC(=O)O)c3C[C@H]2C[C@H]1O [Treprostinil]

Compound: (R)-3-Hydroxybutyric Acid-TPMP conjugate [R-3-Hydroxybutyric acid TPMP Conjugate]
Water solubility, TPMP Conjugate [1]: 2,867,500.0 mg/L

Compound: Baclofen-TPMP conjugate [Baclofen TPMP Conjugate]
Water solubility, TPMP Conjugate [1]: 13,500.0 mg/L

Compound: Captopril TPMP conjugate
Water solubility, TPMP Conjugate [1]: 3,036,666.7 mg/L

Compound: Deoxycholic acid TPMP conjugate
Water solubility, TPMP Conjugate [1]: 2,518,000.0 mg/L

Compound: Diflunisal-TPMP conjugate [Diflunisal TPMP Conjugate]
Water solubility, TPMP Conjugate [1]: 1,518,333.3 mg/L

Compound: Indomethacin-TPMP conjugate [Indomethacin TPMP Conjugate]
Water solubility, TPMP Conjugate [1]: 1,700,000.0 mg/L

Compound: L-Thyroxine TPMP conjugate [Levothyroxine TPMP Conjugate]
Water solubility, TPMP Conjugate [1]: <400 mg/L

Compound: Latanoprost Acid-TPMP conjugate [Latanoprost TPMP Conjugate]
Water solubility, TPMP Conjugate [1]: 2,187,777.8 mg/L

Mean (B-A/A-B) Efflux Ratio (Caco-2): 0.103
Mean Papp A-B (Caco-2): 20.5 10^−6 cm/s
Mean Papp B-A (Caco-2): 2.11 10^−6 cm/s
(Conc. in octanol)/(Conc. in PBS) [2]: 1,182.39
LogD7.4 [2]: 3.07
Compound: Obeticholic acid-TPMP

Compound: Retinoic Acid-TPMP conjugate [Retinoic acid TPMP Conjugate]
Water solubility, TPMP Conjugate [1]: 2,624,000.0 mg/L

Compound: Travoprost Acid-TPMP conjugate [Travoprost TPMP Conjugate]
Water solubility, TPMP Conjugate [1]: 1,921,666.7 mg/L

Compound: Treprostinil TPMP conjugate
Water solubility, TPMP Conjugate [1]: 2,558,000.0 mg/L

Compound: racemic 3-Hydroxybutyric Acid-TPMP conjugate [3-hydroxybutyric acid TPMP Conjugate]
Water solubility, TPMP Conjugate [1]: 4,332,500.0 mg/L
